Measured values taken from patent publication US20100076011A1, “Enantiomer-Pure Hexahydro-Pyrrolocyclopenta-Pyridine Derivatives” (priority 2004, published 2010).
Counter-ions that a name gives are not always drawn. Like-named read-outs stand apart in the source and are kept apart here.

How the values were obtained:
[1] = molecular target: T1, α4β2-subtype (central nicotine receptor) (Rattus norvegicus, UniProt P09483+P12390); assay: Radioligand assay: [3H] cytisin binding to the α4β2-subtype in rat brain membranes
T1 construct: Membrane-enriched fractions of rat brain without cerebellum; tissue ABS Inc. Wilmington, Del; host or cells: rat brain without cerebellum, membrane-enriched fractions
T1 sequence (P09483 31-630): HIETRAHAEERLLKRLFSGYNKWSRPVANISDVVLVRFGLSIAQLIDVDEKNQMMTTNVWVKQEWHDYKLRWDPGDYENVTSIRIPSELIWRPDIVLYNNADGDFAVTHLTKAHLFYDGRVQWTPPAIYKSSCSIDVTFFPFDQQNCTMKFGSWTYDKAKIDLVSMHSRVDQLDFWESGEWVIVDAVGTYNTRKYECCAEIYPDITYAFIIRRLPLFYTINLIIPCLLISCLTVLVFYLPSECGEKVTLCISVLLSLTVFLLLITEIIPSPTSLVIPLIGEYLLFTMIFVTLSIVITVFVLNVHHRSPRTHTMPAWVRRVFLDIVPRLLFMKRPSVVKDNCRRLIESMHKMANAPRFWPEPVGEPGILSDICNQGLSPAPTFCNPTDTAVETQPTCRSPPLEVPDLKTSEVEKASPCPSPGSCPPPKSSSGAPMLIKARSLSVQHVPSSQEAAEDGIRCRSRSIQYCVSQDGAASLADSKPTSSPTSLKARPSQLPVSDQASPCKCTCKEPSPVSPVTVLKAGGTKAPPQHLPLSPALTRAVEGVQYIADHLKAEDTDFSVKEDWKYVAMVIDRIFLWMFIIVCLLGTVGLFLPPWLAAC
T1 sequence (P12390 25-500): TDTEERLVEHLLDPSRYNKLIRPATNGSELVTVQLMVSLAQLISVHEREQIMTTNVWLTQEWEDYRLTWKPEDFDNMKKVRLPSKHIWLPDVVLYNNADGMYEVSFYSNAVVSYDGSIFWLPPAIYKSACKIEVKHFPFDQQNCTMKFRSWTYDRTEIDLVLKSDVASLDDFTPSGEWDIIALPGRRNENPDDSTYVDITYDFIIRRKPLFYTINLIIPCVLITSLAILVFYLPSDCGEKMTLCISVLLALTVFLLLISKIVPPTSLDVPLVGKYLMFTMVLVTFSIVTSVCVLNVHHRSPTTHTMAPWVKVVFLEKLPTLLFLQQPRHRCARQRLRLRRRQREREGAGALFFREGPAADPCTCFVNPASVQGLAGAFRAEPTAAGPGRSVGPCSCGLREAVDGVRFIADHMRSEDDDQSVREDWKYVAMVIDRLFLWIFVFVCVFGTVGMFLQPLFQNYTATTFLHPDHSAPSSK
Description: (2 samples each). The non-specific binding was determined with 10 μM (−)nicotine. The incubation was […] by vacuum filtration through a Whatman GF/C filter which previously had been humidified with 0.5% polyethylene imine. Bound radioactivity was collected on Millipore Multiscreen plates FB with a Packard Cell Harvester, and determined with a Packard Topcount Microplate Beta Counter. IC50 values were determined by non-linear regression, and from this the Ki values by means of the Cheng-Prusoff equation, wherein Ki=IC50/1+[ligand]/KID. The mean Ki values were obtained from at least three individual determinations.

Row | Structure (SMILES) | Ki [1] [µM] | other results
1 | CN1CC[C@@H]2Cc3ccncc3[C@@H]21 [Example 7, (+)-[3aS-(3aα,8bα)]-1,2,3,3a,4,8b-Hexahydro-1-methyl-pyrrolo[3′,2′:4,5]-cyclopenta[1,2-c]pyridinodihydrochloride] | 1.67 | 
2 | c1cc2c(cn1)[C@H]1NCC[C@H]1C2 (as salt: hydrochloride) [Example 6, (−)-[3aR-(3aα,8bα)]-1,2,3,3a,4,8b-Hexahydropyrrolo[3′,2′:4,5]-cyclopenta[1,2-c]pyridinodihydrochloride] |  | melting point: 94 to 95 °C
3 | CN1CC[C@H]2Cc3ccncc3[C@H]21 [Example 8, (−)-[3aR-(3aα,8bα)]-1,2,3,3a,4,8b-Hexahydro-1-methylpyrrolo[3′,2′:4,5]cyclopenta[1,2-c]pyridinodihydrochloride] | 0.027 | 
4 | CN1CCC2Cc3ncccc3C21 (single isomer, unassigned; (-)) [Example 3, (−)-[3aα,8bα]-1,2,3,3a,4,8b-Hexahydro-1-methyl-pyrrolo[2′,3′:3,4]cyclopenta[1,2-b]pyridine-dihydrochloride] | 0.199 | 
5 | c1cc2c(cn1)[C@H]1NCC[C@H]1C2 [Example 6, (−)-[3aR-(3aα,8bα)]-1,2,3,3a,4,8b-Hexahydropyrrolo[3′,2′:4,5]-cyclopenta[1,2-c]pyridinodihydrochloride] | 0.0152 | 
6 | c1cnc2c(c1)C1NCCC1C2 (single isomer, unassigned; (+)) [Example 1, (+)-[3aα,8bα]-1,2,3,3a,4,8b-Hexahydropyrrolo-[2′,3′:3,4]cyclopenta[1,2-b]pyridine-dihydrochloride] | 2.43 | 
7 | c1cnc2c(c1)C1NCCC1C2 (single isomer, unassigned; (-)) [Example 2, (−)-[3aα,8bα]-1,2,3,3a,4,8b-Hexahydropyrrolo-[2′,3′:3,4]cyclopenta[1,2-b]pyridine-dihydrochloride] | > 1000 | 
8 | CN1CCC2Cc3ncccc3C21 (single isomer, unassigned; (+)) [Example 4, (+)-[3aα,8bα]-1,2,3,3a,4,8b-Hexahydro-1-methyl-pyrrolo[2′,3′:3,4]cyclopenta[1,2-b]pyridinedihydrochloride] | > 1000 | 
9 | c1cnc2c(c1)C1NCCC1C2 (single isomer, unassigned; (-)) (as salt: hydrochloride) [Example 2, (−)-[3aα,8bα]-1,2,3,3a,4,8b-Hexahydropyrrolo-[2′,3′:3,4]cyclopenta[1,2-b]pyridine-dihydrochloride] |  | melting point: 95 to 97 °C
10 | c1cc2c(cn1)[C@@H]1NCC[C@@H]1C2 [Example 5, (+)-(3aS-(3aα,8bα)]-1,2,3,3a,4,8b-Hexahydropyrrolo[3′,2′:4,5]-cyclopenta[1,2-c]-pyridinodihydrochloride] |  | Ki ([1]; [3H] cytisin 0.75 nM, rat brain membranes without cerebellum, 75 min at 4° C., mean of at least three determinations, Ki from IC50 by Cheng-Prusoff, read-out: Ki Values of the Enantiomer Pairs): 1.11 µM
